We go through five compounds from patent publication US20120184537A1, “[1,4]-BENZODIAZEPINES AS VASOPRESSIN V2 RECEPTOR ANTAGONISTS” (SHIRE-MOVETIS N.V., priority 2009, published 2012).

What is called IC50 is the concentration needed to halve the response being measured.

A value given as a limit tells only on which side of the number the result lay.

In test [1] the target is T1, human V1a receptors (Homo sapiens, UniProt P37288). The test can be described thus: Human V1a agonist effect (intracellular calcium mobilization in transfected CHO cells). It is filed as cell-based. The conditions noted are these: compound at 1 μM, control response to 1 μM AVP, Ca2+ fluorescence. More on the design: expressed in transfected cells; host or cells: CHO cells. The method, then:
(§1) Intracellular calcium mobilization was measured in CHO cells transfected to express either human V1a receptors (supra), in analogy with the Measurement of intracellular Ca^2+ concentration as described in Tahara A., et al., (1998) Brit. J. Pharmacol., 125; 1463-1470; which is incorporated herein by reference.
(§2) The cells are suspended in DMEM buffer (Invitrogen) complemented with 0.1% fetal calf serum, then distributed in microplates at a density of 4.5×10^4 cells/well.
(§3) The fluorescent probe (Calcium4, Molecular Device) mixed with probenicid in HBSS buffer (Invitrogen) complemented with 20 mM Hepes (Invitrogen) (pH 7.4) is then added into each well and equilibrated with the cells for 60 min at 37° C. then 15 min at 22° C. Thereafter, the assay plates are positioned in a microplate reader (CellLux, PerkinElmer) which is used for the addition of the test compound, reference agonist or HBSS buffer (basal control), and for the measurements of changes in fluorescence intensity which varies proportionally to the free cytosolic Ca^2+ ion concentration. For stimulated control measurements, AVP at 1 μM is added in separate assay wells.
The results are expressed as a percent of the control response to 1 μM AVP.
For orientation: Calcium flux is commonly read through the fluorescence of an indicator in the cells.

Test [2] has as its target T2, human V2 receptor (Homo sapiens, UniProt P30518). The test can be described thus: Human V2 agonist effect (cAMP accumulation in transfected CHO cells). The class given is cell-based. More on the design: expressed in transfected cells; host or cells: CHO cells. The conditions noted are these: compound at 1 μM, control response to 1 nM AVP. The procedure: (§4) The accumulation of cAMP was measured in transfected CHO cells (supra) expressing the human V2 receptor in analogy with the cAMP Assay procedures described in Cotte N., et al., (1998) J. Biol. Chem., 273; 29462-29468; which is incorporated herein by reference.
The cells are suspended in HBSS buffer (Invitrogen) complemented with 20 mM HEPES 20 (pH 7.4), 0.01% BSA and 500 μM IBMX, then distributed in microplates at a density of 3×10^3 cells/well and incubated for 30 min at 22° C. in the absence (control) or presence of the test compound or the reference agonist. For stimulated control measurement, separate assay wells contain AVP at a final concentration of 1 nM. Following incubation, the cells are lysed and the fluorescence acceptor (D2-labeled cAMP) and fluorescence donor (anti-cAMP antibody labeled with europium cryptate) are added. After 60 min at 22° C., the fluorescence transfer is measured at λex=337 nm and λem=620 and 665 nm using a microplate reader (Rubystar, BMG). The cAMP concentration is determined by dividing the signal measured at 665 nm by that measured at 620 nm (ratio).
The results are expressed as a percent of the control response to 1 nM AVP.
Background: Changes in cAMP serve as a functional read-out for many G protein-coupled receptors.

The target in test [3] is T2, human V2 receptor. The test can be described thus: Human V2 antagonist effect (AVP-induced cAMP accumulation in transfected CHO cells). More on the design: expressed in transfected cells; host or cells: CHO cells. The class given is cell-based. The conditions noted are these: inhibition of control response to 0.03 nM AVP, read-out: V2 antagonism IC50. The procedure: as §4
The cells are suspended in HBSS buffer (Invitrogen) complemented with 20 mM HEPES (pH 7.4), 0.01% and 500 μM IBMX, then distributed in microplates at a density of 3×10^3 cells/well and preincubated for 5 min at 22° C. in the absence (control) or presence of the test compound or the reference antagonist. Thereafter, the reference agonist AVP is added at a final concentration of 0.03 nM.
Following 30 min incubation at 22° C., the cells are lysed and the fluorescence acceptor (D2-labeled cAMP) and fluorescence donor (anti-cAMP antibody labeled with europium cryptate) are added. After 60 min at 22° C., the fluorescence transfer is measured at λex=337 nm and λem=620 and 665 nm using a microplate reader (Rubystar, BMG). The cAMP concentration is determined by dividing the signal measured at 665 nm by that measured at 620 nm (ratio). The results are expressed as a percent inhibition of the control response to 0.03 nM AVP.
The standard reference antagonist is [adamantaneacetyl^1,O-Et-D-Tyr^2,Val^4,aminobutyryl^6]-AVP, which is tested in each experiment at several concentrations to generate a concentration-response curve from which its IC50 value is calculated.

Test [4] has as its target T2, human V2 receptor. The test can be described thus: Human vasopressin V2 receptor binding assay ([3H]AVP displacement). More on the design: expressed in transfected cells; host or cells: CHO cells (membrane homogenates). The conditions noted are these: displacement of 0.3 nM [3H]AVP, CHO cell membranes, 120 min at 22° C. The procedure:
(§5) The in vitro inhibition of AVP receptor binding was assessed by using recombinant human V1a or V2 receptor preparations derived from the membranes of transfected CHO cells. Compounds were assessed for their ability to displace [^3H]-arginine vasopressin from plasma membrane preparations of said CHO transfected cells in analogy with the Binding Assay procedures described in Cotte N., et al., (1998) J. Biol. Chem., 273; 29462-29468 and Tahara A., et al., (1998) Brit. J. Pharmacol., 125; 1463-1470; which are incorporated herein by reference.
(§6) Cell membrane homogenates (16 μg protein) are incubated for 120 min at 22° C. with 0.3 nM [^3H]AVP in the absence or presence of the test compound in a buffer containing 50 mM Tris-HCl (pH 7.4), 5 mM MgCl2 and 0.1% BSA. Nonspecific binding is determined in the presence of 1 μM AVP. Following incubation, the samples are filtered rapidly under vacuum through glass fiber filters (GF/B, Packard) presoaked with 0.3% PEI and rinsed three times with ice-cold 50 mM Tris-HCl using a 96-sample cell harvester (Unifilter, Packard). The filters are dried then counted for radioactivity in a scintillation counter (Topcount, Packard) using a scintillation cocktail (Microscint 0, Packard).
(§7) The standard reference compound is AVP (V2 receptor binding assay) or [d(CH2)51,Tyr(Me)2]-AVP (V1a receptor binding assay), which is tested in each experiment at several concentrations to obtain a competition curve from which its IC50 is calculated.

Test [5] has as its target T1, human V1a receptors. In words: Human V1a antagonist effect (AVP-induced calcium mobilization in transfected CHO cells). The conditions noted are these: inhibition of response to 10 nM AVP, Ca2+ fluorescence, read-out: V1a antagonism IC50. The arrangement: expressed in transfected cells; host or cells: CHO cells. The class given is cell-based. The procedure: as §1, §2
as §3, with “compound” for “compound, reference agonist”, “then 5 min later 10 nM AVP or HBSS buffer (control),” for “(basal control),”, “Ca2+” for “Ca^2+”, “concentration.” for “concentration. For stimulated control measurements, AVP at 1 μM is added in separate assay wells.”
The standard reference antagonist is [d(CH2)^51,Tyr(Me)^2,Arg^8]-AVP, which is tested in each experiment at several concentrations to generate a concentration-response curve from which its IC50 value is calculated.

In test [6] the target is T1, human V1a receptors. The test can be described thus: Human vasopressin V1a receptor binding assay ([3H]AVP displacement). The arrangement: expressed in transfected cells; host or cells: CHO cells (membrane homogenates). The conditions noted are these: displacement of 0.3 nM [3H]AVP, CHO cell membranes, 22° C. The procedure: as §5
as §6, with “(40” for “(16”, “for” for “for 120”
as §7

T1 sequence (P37288 whole entry): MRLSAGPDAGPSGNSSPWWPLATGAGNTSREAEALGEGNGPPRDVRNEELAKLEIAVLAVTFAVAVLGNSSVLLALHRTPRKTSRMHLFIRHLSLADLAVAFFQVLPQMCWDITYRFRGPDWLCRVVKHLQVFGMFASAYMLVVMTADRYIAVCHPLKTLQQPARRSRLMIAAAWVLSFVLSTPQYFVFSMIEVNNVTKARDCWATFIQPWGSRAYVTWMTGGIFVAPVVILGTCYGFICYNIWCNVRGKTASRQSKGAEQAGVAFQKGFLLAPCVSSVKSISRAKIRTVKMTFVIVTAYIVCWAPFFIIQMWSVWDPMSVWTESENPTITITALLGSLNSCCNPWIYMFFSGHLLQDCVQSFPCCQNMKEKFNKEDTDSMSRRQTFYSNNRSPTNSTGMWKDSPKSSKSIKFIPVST

For `O=C(O)CN1Cc2ccccc2N(C(=O)c2ccc(NC(=O)c3ccccc3-c3ccccc3)cc2Cl)C[C@H]1CO` [Compound 17, (S)-2-(1-(4-biphenyl-2-ylcarboxamido-2-chlorobenzoyl)-3-(hydroxymethyl)-2,3-dihydro-1H-benzo[e][1,4]diazepin-4(5H)-yl)acetic acid], the “V1a agonist effect, % of control agonist response (AVP)” value (“V1a agonist effect, %” below) at human V1a receptors [1] is given as −1%. Also, the “V2 agonist effect, % of control agonist response (AVP)” value (from here on “V2 agonist effect, %”) on human V2 receptor [2] is −1%. Moreover, the IC50 on human V2 receptor [3] was 2800 nM; on human V2 receptor [4], 120 nM.

Regarding “N-[3-chloro-4-({13-oxa-1,9-diazatricyclo[9.4.0.0^{3,8}]pentadeca-1,3,5,7-tetraen-9-yl}carbonyl)phenyl]-2-phenylbenzamide [Compound 21]”, the “V2 agonist effect, %” value on human V2 receptor [2] is given as −1.5%. Further, the IC50 at human V1a receptors [5] was greater than 100000 nM; on human V2 receptor [3], 410 nM; at human V1a receptors [6], 780 nM; on human V2 receptor [4], 19 nM.

On to `O=C1CN2Cc3ccccc3N(C(=O)c3ccc(NC(=O)c4ccccc4-c4ccccc4)cc3Cl)C[C@H]2CO1` [Compound 16, (S)—N-(3-chloro-4-(3-oxo-3,4,6,11,12,12a-hexahydro-1H-benzo[e][1,4]oxazino[4,3-a][1,4]diazepine-11-carbonyl)phenyl)biphenyl-2-carboxamide], for which the “V1a agonist effect, %” value at human V1a receptors [1] is given as −1%. Moreover, the “V2 agonist effect, %” value at human V2 receptor [2] amounted to 0%. Moreover, the IC50 was greater than 100000 nM on human V1a receptors [5], 13 nM on human V2 receptor [3], 240 nM at human V1a receptors [6] and 1.9 nM on human V2 receptor [4].

For `O=C(Nc1ccc(C(=O)N2C[C@H]3COC(O)CN3Cc3ccccc32)c(Cl)c1)c1ccccc1-c1ccccc1` (stereo partly drawn) [Compound 19, (S)—N-(3-chloro-4-(3-hydroxy-3,4,6,11,12,12a-hexahydro-1H-benzo[e][1,4]oxazino[4,3-a][1,4]diazepine-11-carbonyl)phenyl)biphenyl-2-carboxamide], the “V1a agonist effect, %” value on human V1a receptors [1] is reported as −1%. Also, the “V2 agonist effect, %” value on human V2 receptor [2] amounted to 0%. Further, the IC50 at human V1a receptors [5] is 20000 nM; at human V2 receptor [3], 11 nM; at human V1a receptors [6], 210 nM; at human V2 receptor [4] it was 2.5 nM.

For `O=C(Nc1ccc(C(=O)N2C[C@@H](CO)NCc3ccccc32)c(Cl)c1)c1ccccc1-c1ccccc1` [Compound 14, (S)—N-(3-chloro-4-(3-(hydroxymethyl)-2,3,4,5-tetrahydro-1H-benzo[e][1,4]diazepine-1-carbonyl)phenyl)biphenyl-2-carboxamide], the “V1a agonist effect, %” value at human V1a receptors [1] is −1%. Besides, on human V2 receptor [2], the “V2 agonist effect, %” value is recorded as −1%. In addition, the concentration for half-maximal inhibition (IC50) at human V1a receptors [5] was greater than 100000 nM; on human V2 receptor [3], 57 nM; on human V1a receptors [6], 3800 nM; on human V2 receptor [4], 5.8 nM.
